Results on six molecules are retold here after US11505543B2, “4-oxo-3,4-dihydroquinazoline compounds as inhibitors of human immunodeficiency virus replication” (VIIV HEALTHCARE UK (NO.5) LIMITED, priority 2018, dated 2022).

Data set [1] is described as follows: Compound cytotoxicity, XTT-based colorimetric assay. The data set is classed as cell-based. Conditions: human, uninfected MT2 cells, day 4, XTT. As for the experimental part:
Compound cytotoxicity and the corresponding CC50 values were determined using the same protocol as described in the antiviral assay except that uninfected cells were used. Cytotoxicity was assessed on day 4 in uninfected MT2 cells by using a XTT (2,3-bis[2-Methoxy-4-nitro-5-sulfophenyl]-2H-tetrazolium-5-carboxyanilide inner salt)-based colorimetric assay (Sigma-Aldrich, St Louis, Mo.).

Data set [2] has as its system recombinant NL4-3 virus (nef section replaced with Renilla luciferase gene) in MT-2 cells. The experiment in a line: HIV cell culture assay (antiviral activity, luciferase readout). The data set is classed as cell-based. The settings on record: Renilla, NL43, MT-2 cells infected for 4-5 days with recombinant NL4-3 Renilla luciferase virus, serial dilutions of compound. As for the experimental part: HIV cell culture assay—MT-2 cells, 293T cells and the proviral DNA clone of NL4-3 virus were obtained from the NIH AIDS Research and Reference Reagent Program. MT-2 cells were propagated in RPMI 1640 media supplemented with 10% heat inactivated fetal bovine serum (FBS), 100 μg/ml penicillin G and up to 100 units/mL streptomycin. The 293T cells were propagated in DMEM media supplemented with 10% heat inactivated FBS, 100 μg/mL penicillin G and 100 μg/mL streptomycin. A recombinant NL4-3 proviral clone, in which a section of the nef gene was replaced with the Renilla luciferase gene, was used to make the reference virus used in these studies. The recombinant virus was prepared through transfection of the recombinant NL4-3 proviral clone into 293T cells using Transit-293 Transfection Reagent from Mirus Bio LLC (Madison, Wis.). Supernatent was harvested after 2-3 days and the amount of virus present was titered in MT-2 cells using luciferase enzyme activity as a marker by measuring luciferase enzyme activity. Luciferase was quantitated using the EnduRen Live Cell Substrate from Promega (Madison, Wis.). Antiviral activities of compounds toward the recombinant virus were quantified by measuring luciferase activity in MT-2 cells infected for 4-5 days with the recombinant virus in the presence of serial dilutions of the compound.
The 50% effective concentration (EC50) was calculated by using the exponential form of the median effect equation where (Fa)=1/[1+(ED50/drug conc.)^m] (Johnson VA, Byington RT. Infectivity Assay. In Techniques in HIV Research. ed. Aldovini A, Walker BD. 71-76. New York: Stockton Press. 1990). Curve fitting and analysis were performed with ActivityBase XE Runner software version 9.1.0.4 using model 203 (ID Business Solutions, LTD, Guildford, UK).

The structures appear in SMILES notation.

`COc1ccc(-c2ccc3c(=O)n(-c4ccc(S(=O)(=O)N5CCOCC5)cc4)c([C@H](Cc4cc(F)cc(F)c4)NC(=O)Cn4nc(C(F)F)c5c4C(F)(F)[C@@H]4C[C@H]54)nc3c2)cn1` [Example 112, 2-((3bS,4aR)-3-(difluoromethyl)-5,5-difluoro-3b,4,4a,5-tetrahydro-1H-cyclopropa[3,4]cyclopenta[1,2-c]pyrazol-1-yl)-N-((S)-2-(3,5-difluorophenyl)-1-(7-(6-methoxypyridin-3-yl)-3-(4-(morpholinosulfonyl)phenyl)-4-oxo-3,4-dihydroquinazolin-2-yl)ethyl)acetamide] displayed a CC50 at 4 day in data set [1] greater than 1000 nM. In data set [2], the 50% effective concentration (EC50) stood at 4 nM.
In turn, `O=C(Cn1nc(C(F)F)c2c1C(F)(F)[C@@H]1C[C@H]21)N[C@@H](Cc1cc(F)cc(F)c1)c1nc2cc(-c3cc(F)ccc3F)ccc2c(=O)n1-c1ccc(S(=O)(=O)N2CCOCC2)cc1` [Example 29, 2-((3bS,4aR)-3-(difluoromethyl)-5,5-difluoro-3b,4,4a,5-tetrahydro-1H-cyclopropa[3,4]cyclopenta[1,2-c]pyrazol-1-yl)-N-((S)-2-(3,5-difluorophenyl)-1-(7-(2,5-difluorophenyl)-3-(4-(morpholinosulfonyl)phenyl)-4-oxo-3,4-dihydroquinazolin-2-yl)ethyl)acetamide] returned a 50% cytotoxic concentration (CC50) at 4 day in data set [1] greater than 1000 nM. In addition, the EC50 in data set [2] amounted to 2.9 nM.
Molecule `Cc1cccc(C)c1-c1ccc2c(=O)n(-c3ccc(S(=O)(=O)N4CCOCC4)cc3)c([C@H](Cc3cc(F)cc(F)c3)NC(=O)Cn3ccc(C4CC4)n3)nc2c1` [Example 49, (S)-2-(3-cyclopropyl-1H-pyrazol-1-yl)-N-(2-(3,5-difluorophenyl)-1-(7-(2,6-dimethylphenyl)-3-(4-(morpholinosulfonyl)phenyl)-4-oxo-3,4-dihydroquinazolin-2-yl)ethyl)acetamide] registered a CC50 at 4 day in data set [1] greater than 1000 nM. Also, the EC50 in data set [2] turned out to be 30 nM.
Molecule `Cc1ccnc(-c2ccc3c(=O)n(-c4ccc(Cl)c5c(NS(=O)(=O)C6CC6)nn(CC(F)F)c45)c([C@H](Cc4cc(F)cc(F)c4)NC(=O)Cn4nc(C(F)F)c5c4C(F)(F)[C@@H]4C[C@H]54)nc3c2)n1` [Example 159, N-((S)-1-(3-(4-chloro-3-(cyclopropanesulfonamido)-1-(2,2-difluoroethyl)-1H-indazol-7-yl)-7-(4-methylpyrimidin-2-yl)-4-oxo-3,4-dihydroquinazolin-2-yl)-2-(3,5-difluorophenyl)ethyl)-2-((3bS,4aR)-3-(difluoromethyl)-5,5-difluoro-3b,4,4a,5-tetrahydro-1H-cyclopropa[3,4]cyclopenta[1,2-c]pyrazol-1-yl)acetamide] displayed a cytotoxic concentration (CC50) at 4 day in data set [1] greater than 500 nM. Also, the EC50 in data set [2] came to 0.1 nM.
`O=C(Cn1nc(C(F)F)cc1C(F)F)N[C@@H](Cc1cc(F)cc(F)c1)c1nc2cc(-c3ccccn3)ccc2c(=O)n1-c1ccc(Cl)c2c(NS(=O)(=O)C3CC3)nn(CC(F)F)c12` [Example 190, (S)-2-(3,5-bis(difluoromethyl)-1H-pyrazol-1-yl)-N-(1-(3-(4-chloro-3-(cyclopropanesulfonamido)-1-(2,2-difluoroethyl)-1H-indazol-7-yl)-4-oxo-7-(pyridin-2-yl)-3,4-dihydroquinazolin-2-yl)-2-(3,5-difluorophenyl)ethyl)acetamide] returned a CC50 at 4 day in data set [1] greater than 500 nM. Also, the 50% effective concentration (EC50) in data set [2] is 2.1 nM.
As for `Cn1nc(NS(C)(=O)=O)c2c(Cl)ccc(-n3c([C@H](Cc4cc(F)cc(F)c4)NC(=O)Cn4nc(C(F)F)c5c4C(F)(F)[C@@H]4C[C@H]54)nc4cc(-c5cc(F)c(F)cc5F)ccc4c3=O)c21` [Example 171, N-((S)-1-(3-(4-chloro-1-methyl-3-(methylsulfonamido)-1H-indazol-7-yl)-4-oxo-7-(2,4,5-trifluorophenyl)-3,4-dihydroquinazolin-2-yl)-2-(3,5-difluorophenyl)ethyl)-2-((3bS,4aR)-3-(difluoromethyl)-5,5-difluoro-3b,4,4a,5-tetrahydro-1H-cyclopropa[3,4]cyclopenta[1,2-c]pyrazol-1-yl)acetamide], the EC50 in data set [2] was 0.48 nM.
